Reference: patent EP0828726B1, “TRICYCLIC INHIBITORS OF MATRIX METALLOPROTEINASES” (WARNER-LAMBERT COMPANY, priority 1995, dated 1996)

Legend:
[1] = target: T1, GCD (recombinant gelatinase A catalytic domain) (Homo sapiens, UniProt P08253, DEL220-393); assay: Thiopeptolide substrate IC50 assay, gelatinase A catalytic domain; format: biochemical
T1 construct: The gelatinase A catalytic domain, GCD, was similarly constructed with the additional removal of the fibronectin-like insert which interrupts the catalytic domain; made in house
From the text: (§1) Matrix metalloproteinases share high sequence homology and the catalytic domains of each of the MMPs can be identified by sequence alignment. The gene for the catalytic domain of stromelysin-1, SCD, was constructed by removing the propeptide and C-terminal domain (Ye Q.-Z., Johnson L.L, Hupe D.J., and Baragi V., "Purification and Characterization of the Human Stromelysin Catalytic Domain Expressed in Escherichia coli", Biochemistry, 1992;31:11231-11235). The gelatinase A catalytic domain, GCD, was similarly constructed with the additional removal of the fibronectin-like insert which interrupts the catalytic domain (Ye Q.-Z., Johnson L.L, Yu A.E., and Hupe D., "Reconstructed 19 kDa Catalytic Domain of Gelatinase A is an Active Proteinase", Biochemistry, 1995;34:4702-4708). Both truncated proteins cleave synthetic peptide substrates and the natural substrates proteoglycan and gelatin in a manner similar to the full-length enzymes and can be used to identify matrix metalloproteinase inhibitors.
(§2) Experiments were carried out with both the full-length enzymes and the catalytic domains. […] IC50 values were determined using a thiopeptolide substrate, Ac-Pro-Leu-Gly-thioester-Leu-Leu-Gly-OEt (Ye Q.-Z., Johnson L.L., Hupe D.J., and Baragi V., "Purification and Characterization of the Human Stromelysin Catalytic Domain Expressed in Escherichia coli", Biochemistry, 1992;31:11231-11235). […]

[2] = target: T2, gelatinase A (recombinant full-length enzyme) (Homo sapiens, UniProt P08253); assay: Thiopeptolide substrate IC50 assay, full-length gelatinase A; format: biochemical
T2 construct: gelatinase A (recombinant full-length enzyme)
T2 sequence (P08253 110-660): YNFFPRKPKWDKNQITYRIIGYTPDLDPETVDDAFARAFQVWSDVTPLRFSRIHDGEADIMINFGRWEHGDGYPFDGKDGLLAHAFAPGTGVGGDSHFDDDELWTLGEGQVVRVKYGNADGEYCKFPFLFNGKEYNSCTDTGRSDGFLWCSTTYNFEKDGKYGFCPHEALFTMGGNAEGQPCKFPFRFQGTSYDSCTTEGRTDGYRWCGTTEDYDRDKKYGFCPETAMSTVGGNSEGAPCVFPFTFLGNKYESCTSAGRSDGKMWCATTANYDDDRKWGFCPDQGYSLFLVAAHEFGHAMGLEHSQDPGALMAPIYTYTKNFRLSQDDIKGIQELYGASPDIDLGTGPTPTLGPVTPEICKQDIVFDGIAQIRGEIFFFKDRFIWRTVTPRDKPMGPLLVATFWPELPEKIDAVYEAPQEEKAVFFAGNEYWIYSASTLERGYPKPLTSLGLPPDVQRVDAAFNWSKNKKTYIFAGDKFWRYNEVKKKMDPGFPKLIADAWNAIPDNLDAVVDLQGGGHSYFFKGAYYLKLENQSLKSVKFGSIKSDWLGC
Description: (§3) Experiments were carried out with both the full-length enzymes and the catalytic domains. […] IC50 values were determined using a thiopeptolide substrate, Ac-Pro-Leu-Gly-thioester-Leu-Leu-Gly-OEt (Ye Q.-Z., Johnson L.L., Hupe D.J., and Baragi V., "Purification and Characterization of the Human Stromelysin Catalytic Domain Expressed in Escherichia coli", Biochemistry, 1992;31:11231-11235). […] IC50 values for gelatinase B, and collagenase, were >100 µM.

[3] = target: T3, SCD (stromelysin-1 catalytic domain) (Homo sapiens, UniProt P08254); assay: Thiopeptolide substrate IC50 assay, stromelysin-1 catalytic domain; format: biochemical
T3 construct: The gene for the catalytic domain of stromelysin-1, SCD, was constructed by removing the propeptide and C-terminal domain; made in house; host or cells: Escherichia coli
From the text: as §1, §2

[4] = target: T4, stromelysin-1 (full-length native enzyme) (Homo sapiens, UniProt P08254); assay: Thiopeptolide substrate IC50 assay, full-length stromelysin-1; format: biochemical
T4 construct: stromelysin-1 (full-length native enzyme)
Description: as §3

[5] = target: T5, gelatinase B (recombinant full-length enzyme) (Homo sapiens, UniProt P14780); assay: Thiopeptolide substrate IC50 assay, gelatinase B; format: biochemical
T5 construct: gelatinase B (recombinant full-length enzyme)
Description: as §3

EAE = assay: Experimental allergic encephalomyelitis (EAE), Lewis rat acute model; format: in vivo
Description: Female Lewis rats were purchased from Harlan Sprague-Dawley (Indianapolis, IN) and were used at 8 to 10 weeks of age. Active EAE was induced by injection of 0.05 mL emulsion of myelin basic protein (MBP) with complete Freund's adjuvant (CFA), containing 25 µg guinea pig MBP and 100 µg Mycobacterium butyricum (Difco Laboratories, Detroit, MI) into one hind footpad. Immunized rats were observed daily for clinical signs of EAE and scored as follows: 0, no symptoms; 1, loss of tail tonicity; 2, paresis; 3, hind limb paralysis, often accompanied by incontinence; and 4, death. Formalin-fixed brain slice sections were stained with hematoxylin-eosin and evaluated microscopically for perivascular and parenchymal infiltration. Compound was administered by gavage as a solution in sterile saline in a volume of 500 µL. […] Several different protocols were used to define the efficacy and timing requirements for potency.
Protocol 1: Compound was administered daily at 50 mg/kg beginning on Day 0 and continuing through Day 14, with MBP in CFA administered on Day 0 also. […] N = 5 for all groups.
Controls run in parallel included CFA only and MBP in CFA. N = 4 for treatment groups. N = 8 for controls.

[6] = tested on: Mycobacterium footpad edema; assay: Mycobacterium footpad edema assay (MFE); format: in vivo, Wistar rats; details: in Rattus norvegicus, po, paw swelling on third day
Description: The activity of Example 2 as a general inhibitor of inflammation was tested using the Mycobacterium footpad edema assay (MFE) in Wistar rats. Compound was administered daily by gavage at 2 mg/kg, 10 mg/kg, or 50 mg/kg.
Male outbred Wistar rats (110-125 g, Charles River Labs, Portage, MI) were used in this study. Rats were housed for a minimum of 1 week before use. Food and water were supplied ad libitum. Foot pad edema was induced following the method described by Martel R.R. and Klicius J., "Comparisons in rats of the antiinflammatory and gastric irritant effects of etodolac with several clinically effective antiinflammatory drugs", Agents and Actions, 1982;12:295. Briefly, male Wistar rats were injected subcutaneously into the right hind footpad with 0.1 mL of 5 mg/mL suspension of killed and dried Mycobacterium butyricum (Difco, Detroit, MI) in liquid paraffin. Compound was suspended in 0.5% hydroxypropylmethylcellulose (HPMC) containing 0.2% Tween-80 and administered orally 1 hour before injection. Subsequent doses of the compound were given 24 and 48 hours after the Mycobacterium. Control animals were given vehicle alone. Swelling was assessed on the third day by subtracting the initial volume (determined immediately following the Mycobacterium injection) from the final volume of the treated paw. Paw volume was determined by mercury plethysmography. The percent inhibition of edema achieved in each compound-treated group was determined by comparison with swelling in the vehicle-treated group and the ID50 values were determined by regression analysis. Statistical significance between experimental groups was evaluated using a Student's t-test. […]

[7] = Protocol 1: CFA + MBP, 50 mg/kg daily oral Day 0 through Day 14
[8] = Protocol 2: CFA + MBP, 10 mg/kg alternate days
[9] = Protocol 2: CFA + MBP, 50 mg/kg alternate days

T5 sequence (P14780 94-707): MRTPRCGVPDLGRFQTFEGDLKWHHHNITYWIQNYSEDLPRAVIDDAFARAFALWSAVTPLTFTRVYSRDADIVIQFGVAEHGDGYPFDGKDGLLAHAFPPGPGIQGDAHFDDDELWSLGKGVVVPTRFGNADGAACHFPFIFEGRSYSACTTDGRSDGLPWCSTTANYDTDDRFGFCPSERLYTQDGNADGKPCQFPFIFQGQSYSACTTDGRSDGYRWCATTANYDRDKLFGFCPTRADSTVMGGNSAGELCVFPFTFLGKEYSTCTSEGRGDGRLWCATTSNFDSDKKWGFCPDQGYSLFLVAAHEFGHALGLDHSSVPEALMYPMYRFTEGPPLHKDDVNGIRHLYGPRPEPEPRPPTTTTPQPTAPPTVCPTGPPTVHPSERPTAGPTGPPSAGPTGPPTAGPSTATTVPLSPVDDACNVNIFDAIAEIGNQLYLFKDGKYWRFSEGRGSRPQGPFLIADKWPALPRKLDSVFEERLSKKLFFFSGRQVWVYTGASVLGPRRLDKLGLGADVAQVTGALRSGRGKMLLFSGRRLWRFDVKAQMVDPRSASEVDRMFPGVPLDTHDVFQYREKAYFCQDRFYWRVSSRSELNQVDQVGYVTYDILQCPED
T4 sequence (P08254 100-477): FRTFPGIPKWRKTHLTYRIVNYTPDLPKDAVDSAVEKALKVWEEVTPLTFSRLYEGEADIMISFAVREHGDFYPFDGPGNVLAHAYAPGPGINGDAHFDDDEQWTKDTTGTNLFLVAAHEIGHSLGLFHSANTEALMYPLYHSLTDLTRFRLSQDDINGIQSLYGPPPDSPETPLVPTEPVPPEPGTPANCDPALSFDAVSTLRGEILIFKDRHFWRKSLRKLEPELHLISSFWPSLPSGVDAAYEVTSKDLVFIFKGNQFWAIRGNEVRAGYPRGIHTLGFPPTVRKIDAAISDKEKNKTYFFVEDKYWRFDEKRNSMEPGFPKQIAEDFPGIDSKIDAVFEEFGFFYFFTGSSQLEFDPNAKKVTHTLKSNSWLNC
T3 sequence (P08254 100-272 limits assumed): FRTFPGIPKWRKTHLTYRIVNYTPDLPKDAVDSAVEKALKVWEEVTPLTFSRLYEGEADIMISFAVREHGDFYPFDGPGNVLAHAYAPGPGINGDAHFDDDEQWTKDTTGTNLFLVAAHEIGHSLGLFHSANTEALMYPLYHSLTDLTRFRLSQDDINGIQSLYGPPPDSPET
T1 sequence (P08253 with tags, fused parts or gaps DEL220-393): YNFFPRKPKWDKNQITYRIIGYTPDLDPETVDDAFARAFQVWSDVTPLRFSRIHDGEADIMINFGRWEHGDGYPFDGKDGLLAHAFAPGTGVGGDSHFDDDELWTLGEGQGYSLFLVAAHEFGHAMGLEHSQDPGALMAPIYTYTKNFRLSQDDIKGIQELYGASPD

`O=C(O)CCC(=NO)c1ccc2oc3ccccc3c2c1` [Example 2, 4-Dibenzofuran-2-yl-4-hydroximino-butyric acid] gave an IC50 [1] of 40 nM, an IC50 [2] of 1310 nM and an IC50 [3] of 7.12 µM. For the same compound, the IC50 [4] was 7.64 µM, the IC50 [5] was over 100 µM and the “treated animals showing reduction of symptoms” value (EAE; Protocol 1, 50 mg/kg daily) was 20%. The “treated animals showing total inhibition of symptoms” value (EAE; Protocol 1, 50 mg/kg daily) was 80%, the “leukocyte migration across the blood-brain barrier” value (EAE; Protocol 1, 50 mg/kg daily, histology of brain slices) was “completely prevented” and the “percentage of animals responding” value (EAE; Protocol 1, 50 mg/kg daily, total inhibition or reduction of symptoms) was 100%. The “Day of Peak Expression” value (EAE; [7]) was 12, the “Effect on EAE Rats (≥Paresis/ Total)” value (EAE; [7]) was 1/5 and the “Clinical Grade at Peak of Disease” value (EAE; Protocol 1: CFA + MBP, 50 mg/kg daily oral Day 0 through Day 14, score 0-4, N = 5) was 1.0. The “Effect on EAE Rats (≥Paresis/ Total)” value (EAE; Protocol 1: CFA only (no MBP), 50 mg/kg daily oral) was 0/5, the “Clinical Grade at Peak of Disease” value (EAE; Protocol 1: CFA only (no MBP), 50 mg/kg daily oral, N = 5) was 0 and the “Day of Peak Expression” value (EAE; [8]) was 14. For the same compound, the “Effect on EAE Rats (≥Paresis/ Total)” value (EAE; [8]) was 0/4, the “Clinical Grade at Peak of Disease” value (EAE; Protocol 2: CFA + MBP, 10 mg/kg on Day 0 and alternate days through Day 14, N = 4) was 0.6 and the “Day of Peak Expression” value (EAE; [9]) was 15. The “Effect on EAE Rats (≥Paresis/ Total)” value (EAE; [9]) was 0/4, the “Clinical Grade at Peak of Disease” value (EAE; Protocol 2: CFA + MBP, 50 mg/kg on Day 0 and alternate days through Day 14, N = 4) was 0.8 and the inhibition at 2 mg/kg ([6]; 2 mg/kg daily by gavage) was 23%. For the same compound, the inhibition at 10 mg/kg ([6]; 10 mg/kg daily by gavage) was 27% and the inhibition at 50 mg/kg ([6]; 50 mg/kg daily by gavage) was 40%.
